According to US12435059B2, “AMP-activated protein kinase inhibitors and methods of making and using the same” (The Regents of the University of Colorado, priority 2019, dated 2025):
Read-outs that look alike come from different tables or passages of the source.

How the values were obtained:
Assay in all cases: biochemical
Format in all cases: binding
468 kinases [1] = target: 468 kinases (Homo sapiens, UniProt O00506); conditions: YSK1; read-out: % Inhibition @ 100 nM
468 kinases [2] = target: 468 kinases (Homo sapiens, UniProt O14578); conditions: CIT; read-out: % Inhibition @ 100 nM
468 kinases [3] = target: 468 kinases (Homo sapiens, UniProt O75116); conditions: ROCK2; read-out: % Inhibition @ 100 nM
468 kinases [4] = target: 468 kinases (Homo sapiens, UniProt O75582); conditions: read-out: % Inhibition @ 100 nM
468 kinases [5] = target: 468 kinases (Homo sapiens, UniProt O94806); conditions: PRKD3; read-out: % Inhibition @ 100 nM
468 kinases [6] = target: 468 kinases (Homo sapiens, UniProt P08069); conditions: IGFIR; read-out: % Inhibition @ 100 nM
468 kinases [7] = target: 468 kinases (Homo sapiens, UniProt P10721, D816V); conditions: KIT(D816V); read-out: % Inhibition @ 100 nM
468 kinases [8] = target: 468 kinases (Homo sapiens, UniProt P10721, V559D); conditions: KIT(V559D); read-out: % Inhibition @ 100 nM
468 kinases [9] = target: 468 kinases (Homo sapiens, UniProt P11802); conditions: read-out: % Inhibition @ 100 nM
468 kinases [10] = target: 468 kinases (Homo sapiens, UniProt P23443); conditions: S6K1; read-out: % Inhibition @ 100 nM
468 kinases [11] = target: 468 kinases (Homo sapiens, UniProt P24941); conditions: CDK2; read-out: % Inhibition @ 100 nM
468 kinases [12] = target: 468 kinases (Homo sapiens, UniProt P28482); conditions: ERK2; read-out: % Inhibition @ 100 nM
468 kinases [13] = target: 468 kinases (Homo sapiens, UniProt P29597); conditions: read-out: % Inhibition @ 100 nM
468 kinases [14] = target: 468 kinases (Homo sapiens, UniProt P35626); conditions: GRK3; read-out: % Inhibition @ 100 nM
468 kinases [15] = target: 468 kinases (Homo sapiens, UniProt P36888, D835Y); conditions: FLT3(D835Y); read-out: % Inhibition @ 100 nM
468 kinases [16] = target: 468 kinases (Homo sapiens, UniProt P36888, K663Q); conditions: FLT3(K663Q); read-out: % Inhibition @ 100 nM
468 kinases [17] = target: 468 kinases (Homo sapiens, UniProt Q13464); conditions: ROCK1; read-out: % Inhibition @ 100 nM
468 kinases [18] = target: 468 kinases (Homo sapiens, UniProt Q15303); conditions: ERBB4; read-out: % Inhibition @ 100 nM
468 kinases [19] = target: 468 kinases (Homo sapiens, UniProt Q16816); conditions: PHKG1; read-out: % Inhibition @ 100 nM
468 kinases [20] = target: 468 kinases (Homo sapiens, UniProt Q6P3R8); conditions: NEK5; read-out: % Inhibition @ 100 nM
468 kinases [21] = target: 468 kinases (Homo sapiens, UniProt Q6PHR2); conditions: ULK3; read-out: % Inhibition @ 100 nM
468 kinases [22] = target: 468 kinases (Homo sapiens, UniProt Q6XUX3); conditions: RIPK5; read-out: % Inhibition @ 100 nM
468 kinases [23] = target: 468 kinases (Homo sapiens, UniProt Q96D53); conditions: ADCK4; read-out: % Inhibition @ 100 nM
468 kinases [24] = target: 468 kinases (Homo sapiens, UniProt Q96PN8); conditions: TSSK3; read-out: % Inhibition @ 100 nM
468 kinases [25] = target: 468 kinases (Homo sapiens, UniProt Q99759); conditions: MAP3K3; read-out: % Inhibition @ 100 nM
468 kinases [26] = target: 468 kinases (Homo sapiens, UniProt Q9H093); conditions: SNARK; read-out: % Inhibition @ 100 nM
468 kinases [27] = target: 468 kinases (Homo sapiens, UniProt Q9NRM7); conditions: LATS2; read-out: % Inhibition @ 100 nM
468 kinases [28] = target: 468 kinases (Homo sapiens, UniProt Q9UBF8); conditions: PIK4CB; read-out: % Inhibition @ 100 nM
468 kinases [29] = target: 468 kinases (Homo sapiens, UniProt Q9UM73, C1156Y); conditions: ALK(C1156Y); read-out: % Inhibition @ 100 nM
468 kinases [30] = target: 468 kinases (Homo sapiens, UniProt Q9UQB9); conditions: AURKC; read-out: % Inhibition @ 100 nM
468 kinases [31] = target: 468 kinases (Homo sapiens, UniProt Q9Y2H9); conditions: MAST1; read-out: % Inhibition @ 100 nM
468 kinases [32] = target: 468 kinases (Homo sapiens, UniProt Q9Y5S2); conditions: MRCKB; read-out: % Inhibition @ 100 nM

Compound	inhibition at 0.1 µM (468 kinases [1]) [%]	inhibition at 0.1 µM (468 kinases [2]) [%]	inhibition at 0.1 µM (468 kinases [3]) [%]	inhibition at 0.1 µM (468 kinases [4]; RPS6KA5(Kin.Dom.1-N-terminal)) [%]	inhibition at 0.1 µM (468 kinases [4]; RPS6KA5(Kin.Dom.2-C-terminal)) [%]	inhibition at 0.1 µM (468 kinases [5]) [%]	inhibition at 0.1 µM (468 kinases [6]) [%]	inhibition at 0.1 µM (468 kinases [7]) [%]	inhibition at 0.1 µM (468 kinases [8]) [%]	inhibition at 0.1 µM (468 kinases [9]; CDK4-cyclinD1) [%]	inhibition at 0.1 µM (468 kinases [9]; CDK4-cyclinD3) [%]	inhibition at 0.1 µM (468 kinases [9]; CDK4) [%]	inhibition at 0.1 µM (468 kinases [10]) [%]	inhibition at 0.1 µM (468 kinases [11]) [%]	inhibition at 0.1 µM (468 kinases [12]) [%]	inhibition at 0.1 µM (468 kinases [13]; TYK2(JH1domain-catalytic)) [%]	inhibition at 0.1 µM (468 kinases [13]; TYK2(JH2domain-pseudokinase)) [%]	inhibition at 0.1 µM (468 kinases [14]) [%]	inhibition at 0.1 µM (468 kinases [15]) [%]	inhibition at 0.1 µM (468 kinases [16]) [%]	further results
CCN(CC)CCNC(=O)c1c(C)[nH]c(/C=C2\C(=O)Nc3ccc(CCO)cc32)c1C [Compound No. 10, (Z)—N-(2-(Diethylamino)ethyl)-5-((5-(2-hydroxyethyl)-2-oxoindolin-3-ylidene)methyl)-2,4-dimethyl-1H-pyrrole-3-carboxamide]	21	4	29	11	0	0	0	12	88	5	0	0	37	0	8	1	0	0	100	96.4	inhibition at 0.1 µM (468 kinases [17]): 4%; inhibition at 0.1 µM (468 kinases [18]): 15%; inhibition at 0.1 µM (468 kinases [19]): 86%; inhibition at 0.1 µM (468 kinases [20]): 0%; inhibition at 0.1 µM (468 kinases [21]): 87%; inhibition at 0.1 µM (468 kinases [22]): 0%; inhibition at 0.1 µM (468 kinases [23]): 0%; inhibition at 0.1 µM (468 kinases [24]): 4%; inhibition at 0.1 µM (468 kinases [25]): 59%; inhibition at 0.1 µM (468 kinases [26]): 80%; inhibition at 0.1 µM (468 kinases [27]): 4%; inhibition at 0.1 µM (468 kinases [28]): 0%; inhibition at 0.1 µM (468 kinases [29]): 90%; inhibition at 0.1 µM (468 kinases [30]): 40%; inhibition at 0.1 µM (468 kinases [31]): 40%; inhibition at 0.1 µM (468 kinases [32]): 0%
CCN(CC)CCNC(=O)c1c(C)[nH]c(/C=C2\C(=O)Nc3ccc(CCC(N)=O)cc32)c1C [Compound No. 16, (Z)-5-((5-(3-Amino-3-oxopropyl)-2-oxoindolin-3-ylidene)methyl)-N-(2-(diethylamino)ethyl)-2,4-dimethyl-1H-pyrrole-3-carboxamide]	22	0	44	0	17	53	6	24	0	29	16	9	33	7	6	33	39	61	100	92.9	inhibition at 0.1 µM (468 kinases [17]): 53%; inhibition at 0.1 µM (468 kinases [18]): 6%; inhibition at 0.1 µM (468 kinases [19]): 88%; inhibition at 0.1 µM (468 kinases [20]): 19%; inhibition at 0.1 µM (468 kinases [21]): 25%; inhibition at 0.1 µM (468 kinases [22]): 3%; inhibition at 0.1 µM (468 kinases [23]): 0%; inhibition at 0.1 µM (468 kinases [24]): 5%; inhibition at 0.1 µM (468 kinases [25]): 48%; inhibition at 0.1 µM (468 kinases [26]): 81%; inhibition at 0.1 µM (468 kinases [27]): 13%; inhibition at 0.1 µM (468 kinases [28]): 10%; inhibition at 0.1 µM (468 kinases [29]): 86%; inhibition at 0.1 µM (468 kinases [30]): 98.4%; inhibition at 0.1 µM (468 kinases [31]): 30%; inhibition at 0.1 µM (468 kinases [32]): 15%
